This data set can be described thus: Pharmacokinetics in plasma and synovial fluid after oral gavage. The class given is in vivo, Sprague Dawley male rats. To be noted: rat; for Cmax / AUC(0-inf) / AUC(0-t) / Tmax: male, Sprague Dawley; for Cmax: po, 10 mg/kg. The procedure: Pharmacokinetics of CID 3117694 in Sprague Dawley male rats. The CID 3117694 structure was confirmed using H1 NMR (Figure S1), and it was determined to be >95% pure via HPLC (Figure S2). To determine if CID 3117694 can be used in in vivo RA efficacy model studies, we conducted an in vivo pharmacokinetic (PK) study. CID 3117694 was formulated in 10% DMSO, 40% PEG400, 30% PG, and 20% H2O at 2 mg/mL and administered via oral gavage to Sprague Dawley male rats at 10 mg/kg. Blood and synovial fluid were collected at 15 min, 30 min, 1, 2, 4, 8, and 24 h and quantitated using LC/MS. PK parameters were calculated using WinNonLin 8.3.4 software.
Pharmacokinetics of CID 3117694. All animal studies were conducted in accordance with NSU IACUC guidelines. Study protocol #2021.04.DM2 was approved using NSU IACUC before the commencement of the studies. CID 3117694 was formulated in 10% DMSO, 40% PEG400, 30% PG, and 20% H2O at 2 mg/mL and administered via an intragastric (ig) gavage to six Sprague Dawley male rats at 10 mg/kg. The animals were anesthetized using isoflurane. Blood and synovial fluid were collected at 15 min, 30 min, 1 h, 2 h, 4 h, 8 h, and 24 h after the administration of CID 3117694. Synovial fluid (SF) was collected using a 23-gauge needle connected to a mini peristaltic pump via perfusion tubing. Sterile saline was infused at a constant rate of 100 μL/min^−1. After the infusion of 100 μL of the vehicle (sterile saline), the outflow tubing was connected to the 25-gauge needle to minimize pressure build-up within the joint space. The fluid was infused and withdrawn at a constant rate until a 250 μL basal sample was collected in a 1.5 mL centrifuge tube. Samples were immediately frozen at −20 °C. Blood was collected using a 25 G needle directly from the heart. The samples were prepared for LC-MS/MS analysis using the acetonitrile protein precipitation technique. Briefly, blank plasma and subject samples (plasma and SF samples) were retrieved from the deep freezer and allowed to thaw. The calibration curve standards (10 to 10,000 μg/mL of CID 3117694) and quality control samples were prepared using blank plasma. The thawed samples were vortexed to ensure the complete mixing of the contents. A total of 50 µL of each sample was transferred to the vials, and 200 µL of an Internal Standard (IS, telmisartan) mixed with acetonitrile was added to all the samples and vortexed. Samples were kept on the shaker for 5 min to ensure complete mixing of contents. The samples were centrifuged at 4000 rpm and 20 °C for 10 min, and the supernatant was transferred into auto-injector vials and loaded into the auto-sampler. A total of 5 µL was injected onto the API-4500 Q TRAP LC-MS/MS system. The samples were separated on a Phenomenex, Synergi C18 4.6 mm × 50 mm, 4 µm HPLC column using a 10 mM ammonium acetate + 0.1% Formic acid buffer as solvent A and 100% Acetonitrile as solvent B. PK parameters were quantitated using WinNonLin (Certara, Princeton, NJ, USA).

The mark [1] stands for this setting: synovial fluid, 10 mg/kg oral gavage.

Where two headings read alike, the source gives them in different places.

Regarding `COc1cccc(C(=O)NNC(=O)C(=O)Nc2ccc(C)c(Cl)c2)c1` [CID 3117694], the Cmax is 6640 ng/mL (plasma, plasma, 10 mg/kg oral gavage, read-out: Cmax); 18.4 µM (plasma, plasma, 10 mg/kg oral gavage, read-out: Cmax, Concentration Plasma); 18.4 µM (plasma, plasma, 10 mg/kg oral, read-out: Cmax in plasma); 307 ng/mL (synovial fluid, synovial fluid (SF), 10 mg/kg oral gavage, read-out: Cmax); 0.849 µM (synovial fluid, synovial fluid, 10 mg/kg oral gavage, read-out: Cmax, Concentration SF); 0.849 µM (synovial fluid, synovial fluid, 10 mg/kg oral, read-out: Cmax in SF). In addition, the AUC(0-inf) (as a rule, the area under the concentration-time curve extrapolated to infinity) reads like this: (plasma, 10 mg/kg oral gavage) 173000 ng·h/mL; under setting [1], 1120 ng·h/mL. Moreover, the AUC(0-t) – broadly, the area under the concentration-time curve up to a stated or last time point – was 33100 ng·h/mL (plasma, 10 mg/kg oral gavage) and 1100 ng·h/mL under setting [1]. For the same compound, the Tmax (commonly the time from dosing to the highest level) (plasma, 10 mg/kg oral gavage) turned out to be 1 h and the Tmax under setting [1] turned out to be 1 h. Also, where the note is “10 mg/kg ig gavage, 24 h”, the “concentration at the 24 h time point” value is “below the limit of quantitation (LOQ)”. In addition, where the note is “10 mg/kg oral”, the “oral bioavailability (in words)” value was “orally bioavailable”. In addition, the “time present in the blood at a steady-state concentration” value (10 mg/kg oral) is given as “at least 8 h”.
